Data as given in ChEMBL document CHEMBL4368923 (J Med Chem, 2019).
Values after ≈ are worked out from the molar mass of the structure shown.

Tests used:
[1] = Selectivity index, ratio of CC50 for human MT4 cells to EC50 for HIV1 RES056 harboring reverse transcriptase K103N/Y181C double mutant infected in human MT4 cells
[2] = Selectivity index, ratio of CC50 for human MT4 cells to EC50 for HIV1 3B infected in human MT4 cells
[3] = tested on: Human immunodeficiency virus 1; assay: Antiviral activity against HIV1 RES056 harboring reverse transcriptase K103N/Y181C double mutant infected in human MT4 cells assessed as inhibition of virus-induced cytotoxicity after 5 days by MTT assay; format: functional, organism-based; details: Human immunodeficiency virus 1, RES056, MT4, 120 h
[4] = tested on: Human immunodeficiency virus 1; assay: Antiviral activity against HIV1 3B infected in human MT4 cells assessed as inhibition of virus-induced cytotoxicity after 5 days by MTT assay; format: functional, organism-based; details: Human immunodeficiency virus 1, 3B, MT4, 120 h
[5] = target: Human immunodeficiency virus type 1 reverse transcriptase (Human immunodeficiency virus 1, UniProt Q72547); assay: Inhibition of HIV1 reverse transcriptase p66/p51 using poly(rA)/oligo(dT)16 as template/primer measured after 40 mins by pico-green based spectrofluorometric analysis
[6] = Cytotoxicity against human MT4 cells assessed as reduction in cell viability after 5 days by MTT assay; format: cell-based
[7] = tested on: Human immunodeficiency virus 1; assay: Antiviral activity against HIV1 harboring reverse transcriptase L100I mutant infected in human MT4 cells assessed as inhibition of virus-induced cytotoxicity after 5 days by MTT assay; format: functional, organism-based; details: Human immunodeficiency virus 1, MT4, 120 h
[8] = tested on: Human immunodeficiency virus 1; assay: Antiviral activity against HIV1 harboring reverse transcriptase Y188L mutant infected in human MT4 cells assessed as inhibition of virus-induced cytotoxicity after 5 days by MTT assay; format: functional, organism-based; details: Human immunodeficiency virus 1, MT4, 120 h
[9] = tested on: Human immunodeficiency virus 1; assay: Antiviral activity against HIV1 harboring reverse transcriptase Y181C mutant infected in human MT4 cells assessed as inhibition of virus-induced cytotoxicity after 5 days by MTT assay; format: functional, organism-based; details: Human immunodeficiency virus 1, MT4, 120 h
[10] = tested on: Human immunodeficiency virus 1; assay: Antiviral activity against HIV1 harboring reverse transcriptase K103N mutant infected in human MT4 cells assessed as inhibition of virus-induced cytotoxicity after 5 days by MTT assay; format: functional, organism-based; details: Human immunodeficiency virus 1, MT4, 120 h
[11] = tested on: Human immunodeficiency virus 1; assay: Antiviral activity against HIV1 harboring reverse transcriptase E138K mutant infected in human MT4 cells assessed as inhibition of virus-induced cytotoxicity after 5 days by MTT assay; format: functional, organism-based; details: Human immunodeficiency virus 1, MT4, 120 h
[12] = tested on: Human immunodeficiency virus 1; assay: Antiviral activity against HIV1 harboring reverse transcriptase F227L/V106A double mutant infected in human MT4 cells assessed as inhibition of virus-induced cytotoxicity after 5 days by MTT assay; format: functional, organism-based; details: Human immunodeficiency virus 1, MT4, 120 h
[13] = Subacute toxicity in Kunming mouse assessed as pathological damage to lungs at 50 mg/kg, po dosed once every other day for 14 days by hematoxylin and eosin staining based assay; format: organism-based; details: in vivo, 336 h
[14] = Subacute toxicity in Kunming mouse assessed as ruffled fur at 50 mg/kg, po dosed once every other day for 14 days; format: organism-based; details: in vivo, 336 h
[15] = Acute toxicity in Kunming mouse assessed as lethargy at 2000 mg/kg, ig measured every day for 1 week; format: organism-based; details: in vivo, po, 168 h
[16] = Acute toxicity in Kunming mouse assessed as effect on animal growth at 2000 mg/kg, ig measured every day for 1 week; format: organism-based; details: in vivo, po, 168 h
[17] = Subacute toxicity in Kunming mouse assessed as clonic convulsion at 50 mg/kg, po dosed once every other day for 14 days; format: organism-based; details: in vivo, 336 h
[18] = Subacute toxicity in Kunming mouse assessed as mortality at 50 mg/kg, po dosed once every other day for 14 days; format: organism-based; details: in vivo, 336 h
[19] = Acute toxicity in Kunming mouse assessed as mortality at 2000 mg/kg, ig measured every day for 1 week; format: organism-based; details: in vivo, po, 168 h
[20] = Subacute toxicity in Kunming mouse assessed as lethargy at 50 mg/kg, po dosed once every other day for 14 days; format: organism-based; details: in vivo, 336 h
[21] = Acute toxicity in Kunming mouse assessed as ruffled fur at 2000 mg/kg, ig measured every day for 1 week; format: organism-based; details: in vivo, po, 168 h
[22] = Subacute toxicity in Kunming mouse assessed as pathological damage to kidneys at 50 mg/kg, po dosed once every other day for 14 days by hematoxylin and eosin staining based assay; format: organism-based; details: in vivo, 336 h
[23] = Subacute toxicity in Kunming mouse assessed as effect on body weight at 50 mg/kg, po dosed once every other day for 14 days; format: organism-based; details: in vivo, 336 h
[24] = Acute toxicity in Kunming mouse assessed as anorexia at 2000 mg/kg, ig measured every day for 1 week; format: organism-based; details: in vivo, po, 168 h
[25] = Subacute toxicity in Kunming mouse assessed as pathological damage to spleen at 50 mg/kg, po dosed once every other day for 14 days by hematoxylin and eosin staining based assay; format: organism-based; details: in vivo, 336 h
[26] = Subacute toxicity in Kunming mouse assessed as pathological damage to liver at 50 mg/kg, po dosed once every other day for 14 days by hematoxylin and eosin staining based assay; format: organism-based; details: in vivo, 336 h
[27] = Acute toxicity in Kunming mouse assessed as effect on body weight at 2000 mg/kg, ig measured every day for 1 week; format: organism-based; details: in vivo, po, 168 h
[28] = Acute toxicity in Kunming mouse assessed as clonic convulsion at 2000 mg/kg, ig measured every day for 1 week; format: organism-based; details: in vivo, po, 168 h
[29] = Subacute toxicity in Kunming mouse assessed as anorexia at 50 mg/kg, po dosed once every other day for 14 days; format: organism-based; details: in vivo, 336 h
[30] = Subacute toxicity in Kunming mouse assessed as pathological damage to heart at 50 mg/kg, po dosed once every other day for 14 days by hematoxylin and eosin staining based assay; format: organism-based; details: in vivo, 336 h
[31] = Solubility of the compound in deionized water at pH 7
[32] = Solubility in water at pH 7; format: physicochemical

SMILES	selectivity ratio ([1]; MT4 cells)	selectivity ratio ([2]; MT4 cells)	EC50 [3] [nM]	EC50 ([4]; read-out: EC50) [nM]	IC50 [5] [nM]	CC50 at 120 h [6] [nM]	EC50 ([4]; read-out: pEC50 (converted)) [nM]	EC50 [7] [nM]	EC50 [8] [nM]	EC50 [9] [nM]	EC50 [10] [nM]	EC50 [11] [nM]	EC50 [12] [nM]	also measured
Cc1cc(C#N)cc(C)c1Oc1cc(Cl)nc(Nc2ccc(CN3CCOCC3)cc2)c1	< 1	7	> 6900	930										
Cc1cc(C)c(Oc2nc(N)nc(Nc3ccc(CN4CCOCC4)cc3)n2)c(C)c1	1	≥ 105	> 12900	120	442	≥ 12900	120							
Cc1cc(C#N)cc(C)c1Oc1ccnc(Nc2ccc(CN3CCN(S(C)(=O)=O)CC3)cc2)n1	< 1	475	> 3430	7.2	49	3430	7.24	110	> 5220	470	230	89	1030	
Cc1cc(/C=C/C#N)cc(C)c1Oc1ccnc(Nc2ccc(CN3CCN(S(C)(=O)=O)CC3)cc2)n1			790	3.5	67	≥ 173000	3.47	10	1620	25	3.6	7.5	110	Activity [13]: Non-Toxic; Activity [14]: Non-Toxic; Activity [15]: Non-Toxic; Activity [16]: Non-Toxic; Activity [17]: Non-Toxic; Activity [18]: Non-Toxic; Activity [19]: Non-Toxic; Activity [20]: Non-Toxic; Activity [21]: Non-Toxic; Activity [22]: Non-Toxic; Activity [23]: Non-Toxic; Activity [24]: Non-Toxic; Activity [25]: Non-Toxic; Activity [26]: Non-Toxic; Activity [27]: Non-Toxic; Activity [28]: Non-Toxic; Activity [29]: Non-Toxic; Activity [30]: Non-Toxic
Cc1cc(C#N)cc(C)c1Oc1ccnc(Nc2ccc(CN3CCC(NC(=O)OC(C)(C)C)CC3)cc2)n1	< 1	21	> 4340	200	413	4340	200							
Cc1cc(C#N)cc(C)c1Oc1ccnc(Nc2ccc(CN3CCC(NS(N)(=O)=O)CC3)cc2)n1	< 1	40	> 3720	92	152	3720	91.2	2150	> 6970	6540	500	450	≥ 6820	
Cc1cc(C#N)cc(C)c1Oc1ccnc(Nc2ccc(CN3CCOCC3)cc2)n1	< 1	2040	> 23000	11	42	23000	11	410	4930	910	68	140	1800	solubility [31]: 33.4 µg/mL (≈ 80.4 µM)
Cc1cc(/C=C/C#N)cc(C)c1Oc1ccnc(Nc2ccc(CN3CCC(NC(=O)OC(C)(C)C)CC3)cc2)n1	< 1	138	> 3550	26	499	3550	25.7	280	> 4270	570	68	150	≥ 1140	
Cc1cc(C#N)cc(C)c1Oc1ccnc(Nc2ccc(CNC3CCN(C(=O)OC(C)(C)C)CC3)cc2)n1	< 1	19	> 3510	190	277	3510	191							
Cc1cc(C#N)cc(C)c1Oc1ccnc(Nc2ccc(CN3CCC(NS(C)(=O)=O)CC3)cc2)n1	< 1	331	> 18100	55	79	18100	55	700	≥ 7800	2600	460	380	3230	
Cc1cc(/C=C/C#N)cc(C)c1Oc1ccnc(Nc2ccc(CN3CCN(C(=O)OC(C)(C)C)CC3)cc2)n1	< 1	209	> 3040	15	297	3040	15.1	200	> 4030	420	20	130	150	
Cc1cc(/C=C/C#N)cc(C)c1Oc1ccnc(Nc2ccc(CN3CCC(NS(C)(=O)=O)CC3)cc2)n1	< 1	1020	> 6990	6.9	76	6990	6.92	130	8350	330	25	36	470	
O=C1Nc2ccc(Cl)cc2[C@@](C#CC2CC2)(C(F)(F)F)O1 [EFAVIRENZ]			240			> 6340		52	240		89	6	270	
Cc1cc(C#N)cc(C)c1Oc1nc(Nc2ccc(C#N)cc2)nc(N)c1Br [ETRAVIRINE]			50	3.5		> 4590	3.47	7.4	27	21	3.9		26	solubility [32]: < 1 µg/mL; solubility [31]: < 1 µg/mL
Nc1ccn([C@@H]2CS[C@H](CO)O2)c(=O)n1 [LAMIVUDINE]		> 14		6410		> 87200								
Cc1ccnc2c1NC(=O)c1cccnc1N2C1CC1 [NEVIRAPINE]			> 15000	240		> 15000	240	1640	> 15000	> 15000	10900		> 15000	
Cc1cc(/C=C/C#N)cc(C)c1Nc1ccnc(Nc2ccc(C#N)cc2)n1 [RILPIVIRINE]				1.3		4380	1.29							
Cc1cn([C@H]2C[C@H](N=[N+]=[N-])[C@@H](CO)O2)c(=O)[nH]c1=O [ZIDOVUDINE]			15			> 7480		3.6	5.1	5.6	11	14	6.2	selectivity ratio [1]: > 515; selectivity ratio [2]: > 704
